Assay results published in article PMC9322189, “Development of a Personalized Tumor Neoantigen Based Vaccine Formulation (FRAME-001) for Use in a Phase II Trial for the Treatment of Advanced Non-Small Cell Lung Cancer” (Pharmaceutics, 2022).

How the values were obtained:
Assay type in all cases: physicochemical
[1] = In-use stability of thawed aqueous peptide mixtures at room temperature, UPLC-MS; details: 4 h room temperature
[2] = Release testing and long-term (frozen) stability of aqueous peptide mixtures (143 µg/mL per peptide in PBS 10 mM pH 7.0), UPLC-MS
[3] = Filter experiment: peptide adsorption to the 0.22 µm sterilization filter, UPLC-MS; details: unfiltered sample

CKECGRPLDVVHTLLHIRAFMLIKNPMNVK [FRM001P12, neoantigen peptide, in FRM001-M2]
Peptide peak ratio ([1]; in FRM001-M2, 2 w −25 °C): 23.0%
Peptide peak ratio ([1]; in FRM001-M2, 4 w −25 °C): 20.5%
Peptide peak ratio ([1]; in FRM001-M2, 8 w −25 °C): 21.0%
Peptide peak ratio ([1]; in FRM001-M2, 8 w −80 °C): 21.0%
Peptide peak ratio ([1]; in FRM001-M2, 12 w −25 °C): 19.7%
Peptide peak ratio ([1]; in FRM001-M2, 12 w −80 °C): 20.6%
Peptide peak ratio ([1]; in FRM001-M2, 16 w −25 °C): 18.9%
Peptide peak ratio ([1]; in FRM001-M2, 16 w −80 °C): 20.0%
Peptide peak ratio ([1]; in FRM001-M2, 32 w −25 °C): 22.7%
Peptide peak ratio ([1]; in FRM001-M2, 32 w −80 °C): 24.2%
Peptide peak ratio ([2]; in FRM001-M2, 2 w −25 °C): 22.0%
Peptide peak ratio ([2]; in FRM001-M2, 4 w −25 °C): 19.5%
Peptide peak ratio ([2]; in FRM001-M2, 8 w −25 °C): 19.6%
Peptide peak ratio ([2]; in FRM001-M2, 8 w −80 °C): 20.5%
Peptide peak ratio ([2]; in FRM001-M2, 12 w −25 °C): 18.1%
Peptide peak ratio ([2]; in FRM001-M2, 12 w −80 °C): 20.0%
Peptide peak ratio ([2]; in FRM001-M2, 16 w −25 °C): 17.9%
Peptide peak ratio ([2]; in FRM001-M2, 16 w −80 °C): 19.5%
Peptide peak ratio ([2]; in FRM001-M2, 32 w −25 °C): 20.3%
Peptide peak ratio ([2]; in FRM001-M2, 32 w −80 °C): 22.6%
Peptide peak ratio ([2]; in FRM001-M2, t = 0 w): 24.6%
Peak ratio ([3]; in FRM001M2): 27.7%

GCHLFSKRKCSQNKQSKRGKSRFYLSWRPL [FRM001P01, neoantigen peptide of lung tumor LUN021, in FRM001-M1 and FRM001-M4]
Peptide peak ratio ([1]; in FRM001-M1, 2 w −25 °C): 15.2%
Peptide peak ratio ([1]; in FRM001-M1, 4 w −25 °C): 14.8%
Peptide peak ratio ([1]; in FRM001-M1, 8 w −25 °C): 15.3%
Peptide peak ratio ([1]; in FRM001-M1, 8 w −80 °C): 15.2%
Peptide peak ratio ([1]; in FRM001-M1, 12 w −25 °C): 15.3%
Peptide peak ratio ([1]; in FRM001-M1, 12 w −80 °C): 15.3%
Peptide peak ratio ([1]; in FRM001-M1, 16 w −25 °C): 15.5%
Peptide peak ratio ([1]; in FRM001-M1, 16 w −80 °C): 15.6%
Peptide peak ratio ([1]; in FRM001-M1, 32 w −25 °C): 14.1%
Peptide peak ratio ([1]; in FRM001-M1, 32 w −80 °C): 14.1%
Peptide peak ratio ([1]; in FRM001-M4, 2 w −25 °C): 14.7%
Peptide peak ratio ([1]; in FRM001-M4, 4 w −25 °C): 15.5%
Peptide peak ratio ([1]; in FRM001-M4, 8 w −25 °C): 15.3%
Peptide peak ratio ([1]; in FRM001-M4, 8 w −80 °C): 15.5%
Peptide peak ratio ([1]; in FRM001-M4, 12 w −25 °C): 14.8%
Peptide peak ratio ([1]; in FRM001-M4, 12 w −80 °C): 15.1%
Peptide peak ratio ([1]; in FRM001-M4, 16 w −25 °C): 12.4%
Peptide peak ratio ([1]; in FRM001-M4, 16 w −80 °C): 12.4%
Peptide peak ratio ([1]; in FRM001-M4, 32 w −25 °C): 13.1%
Peptide peak ratio ([1]; in FRM001-M4, 32 w −80 °C): 14.9%
Peptide peak ratio ([2]; in FRM001-M1, 2 w −25 °C): 15.0%
Peptide peak ratio ([2]; in FRM001-M1, 4 w −25 °C): 14.6%
Peptide peak ratio ([2]; in FRM001-M1, 8 w −25 °C): 15.2%
Peptide peak ratio ([2]; in FRM001-M1, 8 w −80 °C): 15.0%
Peptide peak ratio ([2]; in FRM001-M1, 12 w −25 °C): 15.9%
Peptide peak ratio ([2]; in FRM001-M1, 12 w −80 °C): 15.5%
Peptide peak ratio ([2]; in FRM001-M1, 16 w −25 °C): 15.4%
Peptide peak ratio ([2]; in FRM001-M1, 16 w −80 °C): 15.3%
Peptide peak ratio ([2]; in FRM001-M1, 32 w −25 °C): 13.4%
Peptide peak ratio ([2]; in FRM001-M1, 32 w −80 °C): 14.2%
Peptide peak ratio ([2]; in FRM001-M1, t = 0 w, % area of peptide peak of sum of the six peptide peaks): 15.0%
Peptide peak ratio ([2]; in FRM001-M4, 2 w −25 °C): 14.5%
Peptide peak ratio ([2]; in FRM001-M4, 4 w −25 °C): 15.4%
Peptide peak ratio ([2]; in FRM001-M4, 8 w −25 °C): 15.1%
Peptide peak ratio ([2]; in FRM001-M4, 8 w −80 °C): 15.2%
Peptide peak ratio ([2]; in FRM001-M4, 12 w −25 °C): 15.1%
Peptide peak ratio ([2]; in FRM001-M4, 12 w −80 °C): 14.8%
Peptide peak ratio ([2]; in FRM001-M4, 16 w −25 °C): 12.5%
Peptide peak ratio ([2]; in FRM001-M4, 16 w −80 °C): 12.5%
Peptide peak ratio ([2]; in FRM001-M4, 32 w −25 °C): 12.9%
Peptide peak ratio ([2]; in FRM001-M4, 32 w −80 °C): 14.7%
Peptide peak ratio ([2]; in FRM001-M4, t = 0 w): 14.4%
Peak ratio ([3]; in FRM001M1): 14.8%
Peak ratio ([3]; in FRM001M4): 14.9%

GVDYASCGHLVKIWPRRMNRSDVCTVWS [FRM001P13, neoantigen peptide, in FRM001-M4]
Peptide peak ratio ([1]; in FRM001-M4, 2 w −25 °C): 13.4%
Peptide peak ratio ([1]; in FRM001-M4, 4 w −25 °C): 14.5%
Peptide peak ratio ([1]; in FRM001-M4, 8 w −25 °C): 14.4%
Peptide peak ratio ([1]; in FRM001-M4, 8 w −80 °C): 14.7%
Peptide peak ratio ([1]; in FRM001-M4, 12 w −25 °C): 14.6%
Peptide peak ratio ([1]; in FRM001-M4, 12 w −80 °C): 14.4%
Peptide peak ratio ([1]; in FRM001-M4, 16 w −25 °C): 13.1%
Peptide peak ratio ([1]; in FRM001-M4, 16 w −80 °C): 13.0%
Peptide peak ratio ([1]; in FRM001-M4, 32 w −25 °C): 13.5%
Peptide peak ratio ([1]; in FRM001-M4, 32 w −80 °C): 13.4%
Peptide peak ratio ([2]; in FRM001-M4, 2 w −25 °C): 13.6%
Peptide peak ratio ([2]; in FRM001-M4, 4 w −25 °C): 14.6%
Peptide peak ratio ([2]; in FRM001-M4, 8 w −25 °C): 14.7%
Peptide peak ratio ([2]; in FRM001-M4, 8 w −80 °C): 14.9%
Peptide peak ratio ([2]; in FRM001-M4, 12 w −25 °C): 14.4%
Peptide peak ratio ([2]; in FRM001-M4, 12 w −80 °C): 14.6%
Peptide peak ratio ([2]; in FRM001-M4, 16 w −25 °C): 13.3%
Peptide peak ratio ([2]; in FRM001-M4, 16 w −80 °C): 13.1%
Peptide peak ratio ([2]; in FRM001-M4, 32 w −25 °C): 13.6%
Peptide peak ratio ([2]; in FRM001-M4, 32 w −80 °C): 13.9%
Peptide peak ratio ([2]; in FRM001-M4, t = 0 w): 14.2%
Peak ratio ([3]; in FRM001M4): 14.1%

NTDPSCSCVTPLDFNHCLKNREDNGLPMLS [FRM001P10, neoantigen peptide, in FRM001-M2]
Peptide peak ratio ([1]; in FRM001-M2, 2 w −25 °C): 8.9%
Peptide peak ratio ([1]; in FRM001-M2, 4 w −25 °C): 12.1%
Peptide peak ratio ([1]; in FRM001-M2, 8 w −25 °C): 12.1%
Peptide peak ratio ([1]; in FRM001-M2, 8 w −80 °C): 12.0%
Peptide peak ratio ([1]; in FRM001-M2, 12 w −25 °C): 13.7%
Peptide peak ratio ([1]; in FRM001-M2, 12 w −80 °C): 13.2%
Peptide peak ratio ([1]; in FRM001-M2, 16 w −25 °C): 10.2%
Peptide peak ratio ([1]; in FRM001-M2, 16 w −80 °C): 10.1%
Peptide peak ratio ([1]; in FRM001-M2, 32 w −25 °C): 9.6%
Peptide peak ratio ([1]; in FRM001-M2, 32 w −80 °C): 9.3%
Peptide peak ratio ([2]; in FRM001-M2, 2 w −25 °C): 7.2%
Peptide peak ratio ([2]; in FRM001-M2, 4 w −25 °C): 11.5%
Peptide peak ratio ([2]; in FRM001-M2, 8 w −25 °C): 11.0%
Peptide peak ratio ([2]; in FRM001-M2, 8 w −80 °C): 12.9%
Peptide peak ratio ([2]; in FRM001-M2, 12 w −25 °C): 14.2%
Peptide peak ratio ([2]; in FRM001-M2, 12 w −80 °C): 13.8%
Peptide peak ratio ([2]; in FRM001-M2, 16 w −25 °C): 9.6%
Peptide peak ratio ([2]; in FRM001-M2, 16 w −80 °C): 10.4%
Peptide peak ratio ([2]; in FRM001-M2, 32 w −25 °C): 10.8%
Peptide peak ratio ([2]; in FRM001-M2, 32 w −80 °C): 10.7%
Peptide peak ratio ([2]; in FRM001-M2, t = 0 w): 9.1%
Peak ratio ([3]; in FRM001M2): 6.1%
